Data published in PMC12752568, “Aloe‐Emodin Targeting FOXC2 Disrupts NETs Formation and EMT‐Driven Postoperative Peritoneal Adhesion Through TGF‐β1‐Smad2/3 Pathway” (Advanced Science, 2025).
Numbering of substitutions follows the chain as printed.

Experiments:
Type in all cases: binding
[1] = target: T1, Forkhead box protein C2 (FOXC2) (Homo sapiens, UniProt Q99958, N127A); assay: BLI (Octet RED […], Ni-NTA sensors); KD at fit limit
T1 construct: recombinant His-tagged FOXC2 mutant 2, purified from HEK293T cells
T1 sequence (Q99958 1-501 N127A): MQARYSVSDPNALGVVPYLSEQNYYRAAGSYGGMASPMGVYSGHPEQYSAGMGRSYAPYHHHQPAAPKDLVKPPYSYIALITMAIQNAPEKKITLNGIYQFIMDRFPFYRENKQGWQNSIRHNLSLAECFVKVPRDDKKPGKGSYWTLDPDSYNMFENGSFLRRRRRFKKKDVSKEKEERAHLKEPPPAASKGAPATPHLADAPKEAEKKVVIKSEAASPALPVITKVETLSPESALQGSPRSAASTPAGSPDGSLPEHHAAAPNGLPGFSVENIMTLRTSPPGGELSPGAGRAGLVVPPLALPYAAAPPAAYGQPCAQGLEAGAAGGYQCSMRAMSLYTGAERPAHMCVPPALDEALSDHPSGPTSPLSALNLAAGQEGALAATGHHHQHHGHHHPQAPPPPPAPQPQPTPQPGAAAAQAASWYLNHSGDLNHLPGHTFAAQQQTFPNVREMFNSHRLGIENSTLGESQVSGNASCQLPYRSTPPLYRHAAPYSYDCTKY

[2] = target: T2, Forkhead box protein C2 (FOXC2) (Homo sapiens, UniProt Q99958, S125A); assay: BLI (Octet RED […], Ni-NTA sensors)
T2 construct: recombinant His-tagged FOXC2 mutant 1, purified from HEK293T cells
T2 sequence (Q99958 1-501 S125A): T1 sequence (Q99958 1-501 N127A) with S125A, A127N

[3] = target: T3, Forkhead box protein C2 (FOXC2) (Homo sapiens, UniProt Q99958); assay: BLI (Octet RED […], Ni-NTA sensors); supported by AE-bead competitive pull-down from PMCs
T3 construct: recombinant His-tagged FOXC2 (WT), purified from HEK293T cells
T3 sequence (Q99958 1-501): T1 sequence (Q99958 1-501 N127A) with A127N

`O=C1c2cccc(O)c2C(=O)c2c(O)cc(CO)cc21` [AE, 1,8‐dihydroxy‐3‐hydroxymethyl‐anthraquinone] was tested, and the Kd [1] was < 1 pM, the Kd [2] was 13.3 µM and the Kd [3] was 8.25 µM.
